The values below come from article PMC9921896 (Molecules, 2023).

One data set has as its target T1, CYP2D6 (Homo sapiens, UniProt P10635).
T1 construct: Using HLM as the enzyme source; from tissue; host or cells: human liver microsomes
Put plainly: Single concentration Kobs assay (time-dependent inhibition) in HLM. The format is biochemical. Conditions: for Kobs 2D6: HLM, 0.02 min^−1 indicates TD inhibition potential; for Kobs 2D6 / inhibition at 30 min: single concentration; for Single concentration Kobs assay (risk bin) 2D6: TD inhibition class from Kobs vs 0.02 min^−1 (Table 5 traffic lights); for inhibition at 30 min: human, human liver microsomes, significant if >50%, read-out: 2D6 R_Inh% (reversible inhibition). The source says:
(§1) CYP inhibition evaluation is typically performed by either IC50 at single-point or IC50 Shift or abbreviated assay such as the first-order inactivity rate constant (K obs ) at single concentration.
(§2) This method yielded good correlations between the percent inhibition at 10 or 25 μ M and kinact/KI. Evaluation of TD inhibition at single concentration has been implemented in several drug discovery programs. […] Therefore, in this study, a single K obs approach has been utilized to understand the TD inhibition potential of TbB ligands. Ideally, the inhibition of CYPs can be reversible or irreversible. The data obtained from single-concentration K obs studies were analyzed to understand the same. From the data presented in Table 4, the TbB ligands have values less than 50% for reversible inhibition (R_Inh). As the qualified % reversible inhibition is considered significant if >50%, no significant reversible inhibition is observed for TbB ligands. Knowledge about enzyme inactivation half-life (E½) is also equally important as it would provide insight into the TD inhibition of a compound. E½ can be used to bin the compounds as positive or negative TD inhibitors if the values are <28 or >28, respectively. The TbB ligand 223-2 is observed to be a weak positive TD inhibitor of 1A2 and is negative TD inhibitor to the other six CYP isoforms.
(§3) The time-dependent inhibition (TDI) potential of test compounds against CYP1A2, 2B6, 2C8, 2C9, 2C19, 2D6, 3A4/5 isoforms were determined using Human liver microsomes. Assay is performed in 96-deep well plate format (n = 1). Positive controls and DMSO as negative control in each assay. To obtain 100 μ M working stock solution, 1 μ L of blank DMSO/test/reference compounds to 100 μ L 1× DPBS buffer was added and labeled as dilution plate. To the primary incubation plate, 45 μ L of primary mix was dispensed to the desired wells containing 25 μ L HLM, 10 μ L MgCl2, and 10 μ L of NADPH working solutions. To the secondary incubation plate, 95 μ L of secondary mix was dispensed to the desired wells containing 20 μ L MgCl2, 20 μ L NADPH, 10 μ L respective substrates for CYP isoform working solutions and 45 μ L 1× DPBS buffer. Each of these four plates were labeled with their respective time points, i.e., 0, 6, 16, 32 min. Pre-incubated the dilution plate along with primary incubation plate at 37 °C for 15 min at 450 rpm. The reaction was carried out in triplicate. After the incubation, the reaction was quenched by adding 150 μ L ice cold stop solution to all the wells followed by centrifuging the samples at 4000 rpm, 4 °C for 15 min. The supernatant samples were then transferred into vials for LC-MS/MS analysis. The percent Reversible Inhibition was calculated using the following formula. %Reversibleinhibition=100−(PARtestcompt0×100)/(PARaverageDMSOt0)
In general terms: Microsomes from liver hold many membrane-bound enzymes, among them those of drug oxidation.

For a further data set, the system named is CYP3A4/5. The data set is described as above. The format is biochemical, human. Conditions: for Kobs 3A4: HLM, 0.02 min^−1 indicates TD inhibition potential; for Kobs 3A4 / inhibition at 30 min: single concentration; for Single concentration Kobs assay (risk bin) 3A4: TD inhibition class from Kobs vs 0.02 min^−1 (Table 5 traffic lights); for inhibition at 30 min: human, human liver microsomes, significant if >50%, read-out: 3A4 R_Inh% (reversible inhibition).
Description: as §1, §2, §3

Data set [1] is described as follows: Substrate depletion assay in human liver microsomes (HLM). The data set is classed as in vitro ADME. Conditions: pooled human liver microsomes, pH 7.4, test conc. 1.0E-07 M (Table S4). As to the method:
Microsomal stability was determined for the TbB ligands by monitoring the presence of compound after incubation in CPHH and HLM, as shown in Figure 7 and Figure S18 of the Supporting Information. […] Such an observation with NCEs is common because, with HLM, NADPH is used as a cofactor, thereby focusing mainly on phase 1 oxidation pathways such as P450 metabolism. Although additional enzymes, such as UDP-glucuronosyltransferase (UGTs), are present in HLM, the lack of the associated necessary cofactors prevents them from being functionally active (e.g., uridine diphosphate glucuronic acid (UDPGA)). In contrast, all the three TbB ligands metabolized in cryopreserved hepatocytes (Figure 7). […] The reason could be that hepatocytes have all the necessary enzymes and cofactors for the metabolic processes. Since they contain the complete set of oxidative/reductive, hydrolytic, and conjugative drug metabolizing enzymes found in the liver, they are regarded as the gold standard. Therefore, they are preferred in vitro options for expressing metabolic stability as substrate depletion, total metabolic clearance, and T 1/2 [29].
From the plot shown in Figure S18 of the Supporting Information, it can be inferred that the TbB ligands undergo slow biotransformation in HLM. Such high metabolic stability may result in drug interactions leading to toxicity of the parent compound. On the contrary, TbB ligands are undergoing rapid biotransformation in CPHH (Figure 7), and this may lead to generation of metabolites that are either toxic, active, or nonactive. Metabolic stability is typically expressed by in vitro half-life T 1/2 and intrinsic clearance (CLint) terms. Intrinsic clearance (CLint) is measured using the substrate depletion method. It describes the maximum liver (microsomal proteins or hepatocytes) activity towards a compound not affected by other physiological factors such as hepatic blood flow and drug binding within the blood matrix. T 1/2 is used to express the time for the 50% disappearance of the parent compound. A possible explanation for the difference in metabolic stability might be that the TbB ligands bind to microsomes during incubation. This can result in decreased free TbB ligand levels available to interact with metabolizing enzymes, reducing apparent intrinsic clearance values.
By preincubating a test substance for 5 minutes in phosphate buffer (pH 7.4) at 37 °C in shaking water bath, the stability of the test substance was examined in pooled HLM. After NADPH-generating systems addition, the reaction gets initiated and post incubation for 0, 15, 30, 45, and 60 min, the reaction is terminated with addition of acetonitrile/methanol to the incubation mixture. Supernatant obtained after mixing and centrifuging the sample is analyzed by HPLC-MS/MS. Microsomal protein for final use is at 0.1 mg/mL concentration. Four compounds, namely, propranolol and imipramine, known to be relatively stable, and verapamil and terfenadine, known as readily metabolizing in HLM, were included in each assay. Post HPLC-MS/MS of the samples, data are analyzed by considering test compounds peak area at each time point to time zero. Assuming the reaction to follow first-order kinetics, the slope of the initial linear range of the logarithmic curve of remaining compound (%) vs. time is considered to calculate the half-life. Additionally, the half-life is utilized to calculate the intrinsic clearance (CLint) as shown in the following equation. CLint(μL/min/mgprotein)=0.693/T1/2×proteinconc.

The structures appear in SMILES notation. Some results are limits rather than exact numbers.

T1 sequence (P10635 whole entry): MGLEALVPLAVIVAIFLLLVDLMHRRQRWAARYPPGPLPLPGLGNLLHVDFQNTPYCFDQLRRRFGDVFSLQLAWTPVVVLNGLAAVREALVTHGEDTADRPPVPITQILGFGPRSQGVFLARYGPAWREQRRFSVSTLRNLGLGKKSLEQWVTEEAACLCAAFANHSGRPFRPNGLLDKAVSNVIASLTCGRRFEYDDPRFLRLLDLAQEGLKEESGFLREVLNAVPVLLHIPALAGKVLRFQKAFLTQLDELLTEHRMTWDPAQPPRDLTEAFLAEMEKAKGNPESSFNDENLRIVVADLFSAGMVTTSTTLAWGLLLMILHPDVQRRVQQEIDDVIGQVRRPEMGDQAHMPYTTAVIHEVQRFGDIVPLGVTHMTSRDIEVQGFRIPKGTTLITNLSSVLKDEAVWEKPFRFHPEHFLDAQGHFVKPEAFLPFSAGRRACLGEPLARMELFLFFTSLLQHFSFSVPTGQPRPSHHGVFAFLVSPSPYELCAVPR

In general, inhibition refers to the change of the read-out against control, counted positive when it falls. For orientation: half-life means the time in which the quantity being followed falls by half. A low value points to fast loss. Usually microsomal CLint stands for the rate of metabolic loss divided by the concentration. Consider `COc1cc(-c2nnn(-c3cc(OC)c(O)c(OC)c3)n2)cc(OC)c1O` [223-2], for which, at CYP2D6, the “Kobs 2D6” value stood at 1.479e-10 min⁻¹, the “Single concentration Kobs assay (risk bin) 2D6” value is given as “negative inhibitor” and the inhibition at 30 min is under 50%. For the same molecule, in the data set with CYP3A4/5, the “Kobs 3A4” value came out at 0.006312 min⁻¹, the “Single concentration Kobs assay (risk bin) 3A4” value was “negative inhibitor” and the inhibition at 30 min was under 50%. In addition, in data set [1], the half-life at 100 nM was 13.5 h and the microsomal CLint at 100 nM is under 116 µL/min/mg.
As to `Cc1cc(-c2nnn(-c3cc(C)c(O)c(C)c3)n2)cc(C)c1O` [223-3], at CYP2D6, the “Kobs 2D6” value was found to be 0.01109 min⁻¹, the “Single concentration Kobs assay (risk bin) 2D6” value was “weak positive inhibitor” and the inhibition at 30 min was under 50%. In the data set on CYP3A4/5, the “Kobs 3A4” value turned out to be 0.02143 min⁻¹, the “Single concentration Kobs assay (risk bin) 3A4” value is listed as “weak positive inhibitor” and the inhibition at 30 min is under 50%. In data set [1], this molecule yielded a half-life at 100 nM of 1.25 h and a microsomal CLint at 100 nM of under 116 µL/min/mg.
Take `Oc1ccc(-c2nnn(-c3ccc(O)cc3)n2)cc1` [223-10]: at CYP2D6, the “Kobs 2D6” value worked out at 0.009064 min⁻¹, the “Single concentration Kobs assay (risk bin) 2D6” value is “negative inhibitor” and the inhibition at 30 min was under 50%. Moreover, in the data set on CYP3A4/5, the “Kobs 3A4” value is 0.001719 min⁻¹, the “Single concentration Kobs assay (risk bin) 3A4” value is reported as “negative inhibitor” and the inhibition at 30 min was under 50%. Also, in data set [1], the half-life at 100 nM was found to be 3 h and the microsomal CLint at 100 nM was under 116 µL/min/mg.
